The text below walks through data of ChEMBL document CHEMBL1201862, “PubChem BioAssay data set” (2004).

Common to all, as to test: DTP human tumour cell line panel, 48 h
The subject of test [1] is OVCAR-5.
The test system of test [2] is RXF 393.
Test [3] has as its system NCI-H226.
For test [4], the system named is K562.
Test [5] has as its system CCRF-CEM.
In test [6] the test system is SF-268.
The test system of test [7] is HT-29.
In test [8] the test system is EKVX.
The test system of test [9] is SF-295.
The test system of test [10] is KM12.
Test [11] deals with UACC-62.
Test [12] relates to OVCAR-8.
Test [13] concerns LOX IMVI.
Test [14] concerns HCT-15.
The subject of test [15] is SN12C.
Test [16] deals with UACC-257.
In test [17] the test system is HOP-62.
The subject of test [18] is CAKI-1.

The structures appear in SMILES notation.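 Results reflect a 48-hour exposure of cells in 96-well plates to compound at five concentrations. The concentration for 50% growth inhibition is given as GI50.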 Calls of active or inactive are those of the source. Rule as the data show it: active = GI50 up to about 1.1 µM and inactive = higher. Bounds are passed on as bounds.

As for `CC1=C(C)C(=O)c2c(cc3ccc4ccccc4n23)C1=O`, the GI50 in test [1], in [2], in test [3], in test [4], in test [5] and in test [6] was > 100 µM (inactive) in each case. Besides, the GI50 in [7], in test [8], in test [9], in test [10], in test [11] and in test [12] was > 100 µM (inactive) throughout. Further, the GI50 was > 100 µM (inactive) in test [13], > 100 µM in [14] and > 100 µM (inactive) in test [15].
Turning to `CN(C)CC1CCCC(CN(C)C)C1=NOC(=O)c1ccccc1` (stereo not given), the GI50 in test [1], in test [3], in test [4], in test [5], in test [6] and in [7] was > 100 µM (inactive) in each case. Moreover, the GI50 in test [8], in test [9], in test [10], in test [16], in test [11] and in [17] was > 100 µM (inactive) throughout. Also, the GI50 in test [12] is > 100 µM (inactive); in [13], > 100 µM (inactive); in test [14], > 100 µM; in [15], > 100 µM (inactive).
Take `CN(C)CCNC(=O)c1cccc2c(Nc3ccc(S(=O)(=O)N=C(N)N)cc3)c3ccccc3nc12`: the GI50 in [1] is 28.4 µM (inactive); in [2] it was 28 µM (inactive); in [3], 2.19 µM (inactive); in test [4], 11.9 µM (inactive); in test [5], 2.57 µM (inactive); in test [6], 7.24 µM (inactive). The GI50 in test [7] is 16.3 µM (inactive); in [8] it was 20.6 µM (inactive); in [9] it was 17.3 µM (inactive); in [10], 31.3 µM (inactive); in [11], 10.3 µM (inactive); in test [17], 11.3 µM (inactive). Further, the GI50 in test [12] was 8.79 µM (inactive); in test [13] it was 5.94 µM (inactive); in [14], 99.1 µM; in test [15] it was 5.15 µM (inactive).
Take `CN(CCN(C)C(=O)CCOS(C)(=O)=O)C(=O)CCOS(C)(=O)=O`: the GI50 is > 100 µM (inactive) in test [1]; > 100 µM (inactive) in test [3]; > 100 µM (inactive) in test [4]; > 100 µM (inactive) in [18]; 24.3 µM (inactive) in [5]; 77.8 µM (inactive) in test [6]. The GI50 in [7] was > 100 µM (inactive); in test [8], > 100 µM (inactive); in test [9] it was > 100 µM (inactive); in [10] it was > 100 µM (inactive); in test [16], > 100 µM (inactive); in test [11] it was 43.5 µM (inactive). Moreover, the GI50 was 59 µM (inactive) in test [17]; > 100 µM (inactive) in [12]; > 100 µM (inactive) in test [13]; > 100 µM in test [14]; > 100 µM (inactive) in [15].
Regarding `O=C1C=CC=CC2CC=C[C@@H](O)C12` (stereo not given in full), the GI50 in test [1] was 30.5 µM (inactive); in test [4], 26.5 µM (inactive); in test [18], 65.6 µM (inactive); in [5], 15.3 µM (inactive); in test [6], 21.3 µM (inactive); in test [7], 16.8 µM (inactive). Further, the GI50 was 24.5 µM (inactive) in test [8]; 20.7 µM (inactive) in test [9]; 10.4 µM (inactive) in test [10]; 14 µM (inactive) in [16]; 17.8 µM (inactive) in test [11]; 45.7 µM (inactive) in test [17]. Besides, the GI50 is 29.6 µM (inactive) in test [12], 15.6 µM (inactive) in test [13], 17.3 µM in test [14] and 22.4 µM (inactive) in [15].
As for `O=C(Nc1c(O)[nH]c(=S)[nH]c1=O)c1ccccc1`, the GI50 in test [1], in [3], in [4], in [18], in test [5] and in [6] was > 100 µM (inactive) throughout. The GI50 in test [7], in test [9], in test [10], in test [16], in [11] and in test [17] was > 100 µM (inactive) each time. Also, the GI50 in test [12] was > 100 µM (inactive); in test [13] it was > 100 µM (inactive); in test [14] it was > 100 µM; in [15], > 100 µM (inactive).
As to `CN(C(=O)C12C3C4C1C1C2C3C41C(O)C(C)(C)C)C(C)(C)C` (stereo not given), the GI50 in [1], in test [3], in [4], in test [18], in test [5] and in [6] was > 100 µM (inactive) in each case. The GI50 in test [7], in test [8], in test [9], in [10], in test [16] and in test [11] was > 100 µM (inactive) in each case. Moreover, the GI50 in test [17], in test [12], in [13] and in test [15] was > 100 µM (inactive) in each case.
Take `O=c1c2cc(Br)cc(Br)c2[nH]c(=S)n1-c1ccccc1`: the GI50 in test [1] was > 100 µM (inactive); in test [3] it was 30.2 µM (inactive); in test [4], 32.4 µM (inactive); in test [18], 54.5 µM (inactive); in [5] it was 42.2 µM (inactive); in [6], 52.4 µM (inactive). The GI50 in [7] is > 100 µM (inactive); in [8], 58.1 µM (inactive); in test [9] it was > 100 µM (inactive); in test [10], > 100 µM (inactive); in test [16], > 100 µM (inactive); in [11], 91.2 µM (inactive). The GI50 is 88.5 µM (inactive) in test [17]; 63 µM (inactive) in test [12]; 75.2 µM (inactive) in test [13]; 90.2 µM in test [14]; 78.5 µM (inactive) in test [15].
Take `[O-][n+]1c2cc(CN3CCOCC3)c(CN3CCOCC3)cc2[n+]([O-])c2c(O)cccc21`: the GI50 in test [1] was 4.38 µM (inactive); in [2] it was 0.968 µM (active); in test [3], 8.65 µM (inactive); in test [4], 2.61 µM (inactive); in test [5], 0.427 µM (active); in [6], 1.05 µM (active). For the same compound, the GI50 in [7] is 3.91 µM (inactive); in test [8], 6.53 µM (inactive); in [9] it was 0.478 µM (active); in test [10], 4.4 µM (inactive); in [16], 6.24 µM (inactive); in test [11] it was 4.21 µM (inactive). Further, the GI50 in test [17] is 3.75 µM (inactive); in test [12], 2.48 µM (inactive); in test [13] it was 4.02 µM (inactive); in [14], 3.44 µM; in test [15], 2.87 µM (inactive).
Consider `CN(C)c1[se]nc2c1c(=O)n(C)c(=O)n2C`, for which the GI50 in test [1], in test [3], in test [4], in [18], in test [5] and in [6] was > 100 µM (inactive) in each case. In addition, the GI50 in test [7], in test [8], in test [9], in test [10], in [16] and in test [11] was > 100 µM (inactive) each time. For the same compound, the GI50 in [17] was > 100 µM (inactive); in [12] it was > 100 µM (inactive); in test [13] it was > 100 µM (inactive); in test [14], > 100 µM; in test [15] it was > 100 µM (inactive).
For the compound `O=C(/C=C/c1ccc(OCCCOc2ccc(/C=C/C(=O)c3ccccc3)cc2)cc1)c1ccccc1`, the GI50 in test [2] was > 100 µM (inactive); in [3], 36.3 µM (inactive); in test [4] it was > 100 µM (inactive); in test [5] it was > 100 µM (inactive); in [6] it was > 100 µM (inactive); in test [7], > 100 µM (inactive). Further, the GI50 in test [8], in test [9], in test [16], in [11], in test [17] and in [12] was > 100 µM (inactive) in each case. Further, the values for the GI50 in test [13], in test [14] and in test [15] were > 100 µM (inactive), > 100 µM and > 100 µM (inactive), respectively.
Take `CCOC(=O)NC(=O)c1cn(CCCO)c(=O)[nH]c1=O`: the GI50 in test [1], in test [3], in test [4], in test [18], in test [5] and in test [6] was > 100 µM (inactive) throughout. Besides, the GI50 in test [7], in test [8], in test [9], in test [10], in test [16] and in [11] was > 100 µM (inactive) in each case. For the same compound, the GI50 is > 100 µM (inactive) in test [17]; > 100 µM (inactive) in test [12]; > 100 µM (inactive) in test [13]; > 100 µM in test [14]; > 100 µM (inactive) in [15].

What is called GI50 is the concentration at which growth is held to half of that of the control.
